Values of other authors, collected in patent US11596657B2, “Use of AhR agonist for the preventive or curative treatment of metabolic syndrome and the associated disorders” (INSTITUT NATIONAL DE LA RECHERCHE AGRONOMIQUE, priority 2016, dated 2023).

Tests used:
[1] = tested on: male C57Bl/6J mice fed a Western diet
human AhR = target: T1, human AhR (Homo sapiens, UniProt P35869); details: potency compared with TCDD
T1 sequence (P35869 11-848): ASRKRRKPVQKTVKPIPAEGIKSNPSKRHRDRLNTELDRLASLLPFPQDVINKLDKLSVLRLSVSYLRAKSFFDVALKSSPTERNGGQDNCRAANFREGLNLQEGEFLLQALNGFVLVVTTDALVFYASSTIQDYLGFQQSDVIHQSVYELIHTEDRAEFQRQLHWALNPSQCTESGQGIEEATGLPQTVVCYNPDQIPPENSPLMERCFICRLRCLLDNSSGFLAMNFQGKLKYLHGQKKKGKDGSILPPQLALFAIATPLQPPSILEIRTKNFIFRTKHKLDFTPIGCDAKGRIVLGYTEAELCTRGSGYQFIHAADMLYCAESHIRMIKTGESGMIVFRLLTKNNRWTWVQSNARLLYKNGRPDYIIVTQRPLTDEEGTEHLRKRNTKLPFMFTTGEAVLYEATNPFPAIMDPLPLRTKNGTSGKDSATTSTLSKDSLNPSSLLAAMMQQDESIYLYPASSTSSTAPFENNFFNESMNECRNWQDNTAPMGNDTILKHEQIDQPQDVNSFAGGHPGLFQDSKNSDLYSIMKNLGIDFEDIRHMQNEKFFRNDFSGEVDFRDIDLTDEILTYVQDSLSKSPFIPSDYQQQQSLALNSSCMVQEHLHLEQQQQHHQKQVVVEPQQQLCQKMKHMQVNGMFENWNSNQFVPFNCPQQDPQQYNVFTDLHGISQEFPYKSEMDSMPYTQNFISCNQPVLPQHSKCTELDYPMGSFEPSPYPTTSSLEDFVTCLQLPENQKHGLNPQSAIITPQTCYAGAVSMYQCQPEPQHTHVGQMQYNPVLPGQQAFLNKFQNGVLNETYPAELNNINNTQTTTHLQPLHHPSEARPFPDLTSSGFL

In the case of `Cc1ccccc1N=Nc1ccc(NC(=O)c2ccnn2C)c(C)c1` [CH-223191], the “obesity, adiposity and liver steatosis” value [1] is given as “significantly reduce obesity and adiposity and ameliorates liver steatosis”.

For `Cc1cc(C)c(C=C2C(=O)Nc3ccccc32)[nH]1` [SU5416, 3-(3,5-dimethyl-1H-pyrrol-2-ylmethylene)-1,3-dihydro-indole-2-one], the “activation of human AhR” value (human AhR) is listed as “activates the human AhR with a potency approaching TCDD”.

In the case of `O=c1cc(-c2ccccc2)oc2c1ccc1ccccc12` [α-naphthoflavone], the “obesity, adiposity and liver steatosis” value [1] is given as “significantly reduce obesity and adiposity and ameliorates liver steatosis”.
